The values below come from patent US20250145606A1 (Arcus Biosciences, Inc., priority 2023, published 2025).

What all share (conditions): biochemical, HTRF KinEASE-TK
For assay [1], the target named is PDGFRβ (Homo sapiens (Human), UniProt P09619). Description: Inhibition of PDGFRβ kinase activity (HTRF KinEASE-TK). On the procedure: (§1) Inhibition of c-Kit, PDGFRα, PDGFRβ, CSFIR and FLT3 Kinase Activity
(§2) Compounds were evaluated to determine the potency with which they inhibit the kinase activity of the following panel of tyrosine kinases: c-Kit (SignalChem, Product #: K06-11BG), PDGFRα (SignalChem, Product #: P12-18G), PDGFRβ (SignalChem, Product #: P13-11G), CSFIR (SignalChem, Product #: C74-11G) and FLT3 (Invitrogen, Product #: PR4666C). Activity was determined as a function of phosphorylated biotinylated TK peptide generated by the transfer of phosphate from ATP as measured by the use of the HTRF KinEASE-TK assay kit (Cisbio, Product #: 62TKOPEJ). Levels of phosphorylated biotinylated TK peptide (Part 61TKOBLC of KinEASE assay kit) are quantified by its capture by phosphor-TK-Antibody-Cryptate (Part of KinEASE assay kit) and XL665-labeled Streptavidin (Part 610SAXLG of KinEASE assay kit) followed by measurement of Time-Resolved Fluorescence Resonance Energy Transfer (TR-FRET) signal. On the day of the assay, compounds were solubilized in DMSO and dispensed into a 384-well white Opti-plate (PerkinElmer, catalog #6007290) to generate a 22 point 1:2 titration. Enzyme solution was prepared for each of the tyrosine kinases in 50 mM HEPES, pH 7.4, 5 mM MgCl2 for c-Kit or 10 mM MgCl2 for FLT3, CSFIR, PDGFRa and PDGFRβ, 2 mM MnCl2, 0.01% Brij-35 and 0.01% BSA. Working enzyme concentrations were prepared for c-Kit at 2 nM (2×), PDGFRa and PDGFRß at 10 nM (2×), CSFIR at 2 nM (2×) and FLT3 at 0.4 nM (2×). Five microliters of enzyme dilution of each tyrosine kinase were added to their respective 384-well white Opti-plate pre-dispensed with compound and allowed to incubate for 1 h at rt. Utilizing the same enzyme buffer recipe, 2x substrate mixes were prepared for each enzyme as follows: For c-Kit, 1.6 μM (2×) TK substrate and 16 μM (2×) ATP (Promega, catalog #V915). For PDGFRα, 3.2 μM TK substrate and 1 μM ATP. For PDGFRβ, 3.2 μM TK substrate and 40 μM ATP. For CSFIR, […] TK substrate and 20 μM ATP. For FLT3, 3.2 μM TK substrate and 100 μM ATP. Reactions were initiated by addition of 5 μL of the respective 2x substrate mix to each well of the plates containing the respective tyrosine kinase enzymes and were allowed to proceed for 120 minutes at rt, except for FLT3, the reaction time is 45 min. Following the reaction, 10 μL of detection mix consisting of 0.2 μM (2×) of Streptavidin-XL665 and 2 μM (2×) of TK-Antibody-Cryptate prepared in detection buffer (Part 62SDBRDF of KinEASE assay kit) was added and then allowed to incubate for 60 min. The TR-FRET signal was quantified by measuring the ratio of emission at 665 nm to 620 nm after excitation at 320 nm by reading on a PerkinElmer Envision multimode reader. Compound potencies (IC50 values) were determined using a standard 4-parameter non-linear regression fit.

For assay [2], the target named is c-Kit (Homo sapiens (Human), UniProt P10721). Description: Inhibition of c-Kit kinase activity (HTRF KinEASE-TK). The class given is biochemical. On the procedure: as §1, §2
Sequence of c-Kit (P10721 26-976): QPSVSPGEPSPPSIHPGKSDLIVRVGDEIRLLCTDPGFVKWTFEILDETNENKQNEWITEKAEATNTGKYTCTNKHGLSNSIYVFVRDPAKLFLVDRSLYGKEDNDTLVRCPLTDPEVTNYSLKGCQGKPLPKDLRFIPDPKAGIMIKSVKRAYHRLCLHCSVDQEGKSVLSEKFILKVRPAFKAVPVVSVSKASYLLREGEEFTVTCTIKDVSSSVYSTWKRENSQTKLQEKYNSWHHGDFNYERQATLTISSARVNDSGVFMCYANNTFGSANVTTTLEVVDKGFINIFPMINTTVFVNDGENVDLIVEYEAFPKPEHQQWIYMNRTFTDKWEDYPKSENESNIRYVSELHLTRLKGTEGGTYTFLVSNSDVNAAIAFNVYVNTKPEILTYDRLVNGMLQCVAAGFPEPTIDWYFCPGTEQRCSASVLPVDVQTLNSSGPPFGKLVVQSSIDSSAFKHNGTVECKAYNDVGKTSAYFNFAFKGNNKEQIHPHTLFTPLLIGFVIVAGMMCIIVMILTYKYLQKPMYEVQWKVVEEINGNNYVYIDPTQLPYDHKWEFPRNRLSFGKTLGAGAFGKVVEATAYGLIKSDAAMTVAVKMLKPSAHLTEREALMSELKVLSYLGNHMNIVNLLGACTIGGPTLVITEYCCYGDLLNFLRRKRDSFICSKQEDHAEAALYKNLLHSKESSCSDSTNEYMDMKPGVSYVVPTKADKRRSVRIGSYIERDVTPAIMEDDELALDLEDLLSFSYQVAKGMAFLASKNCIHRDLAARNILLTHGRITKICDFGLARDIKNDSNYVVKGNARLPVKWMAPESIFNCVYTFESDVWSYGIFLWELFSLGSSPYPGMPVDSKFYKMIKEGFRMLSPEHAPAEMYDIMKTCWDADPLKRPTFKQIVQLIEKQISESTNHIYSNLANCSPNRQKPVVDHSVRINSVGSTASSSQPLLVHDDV
The target of assay [3] is CSF1R (Homo sapiens (Human), UniProt P07333). Kind of assay: Inhibition of CSF1R kinase activity (HTRF KinEASE-TK). On the procedure:
as §1, §2

The target in assay [4] is PDGFRα (Homo sapiens (Human), UniProt P16234). Kind of assay: Inhibition of PDGFRα kinase activity (HTRF KinEASE-TK). On the procedure:
as §1, §2

Sequence of PDGFRα (P16234 24-1089): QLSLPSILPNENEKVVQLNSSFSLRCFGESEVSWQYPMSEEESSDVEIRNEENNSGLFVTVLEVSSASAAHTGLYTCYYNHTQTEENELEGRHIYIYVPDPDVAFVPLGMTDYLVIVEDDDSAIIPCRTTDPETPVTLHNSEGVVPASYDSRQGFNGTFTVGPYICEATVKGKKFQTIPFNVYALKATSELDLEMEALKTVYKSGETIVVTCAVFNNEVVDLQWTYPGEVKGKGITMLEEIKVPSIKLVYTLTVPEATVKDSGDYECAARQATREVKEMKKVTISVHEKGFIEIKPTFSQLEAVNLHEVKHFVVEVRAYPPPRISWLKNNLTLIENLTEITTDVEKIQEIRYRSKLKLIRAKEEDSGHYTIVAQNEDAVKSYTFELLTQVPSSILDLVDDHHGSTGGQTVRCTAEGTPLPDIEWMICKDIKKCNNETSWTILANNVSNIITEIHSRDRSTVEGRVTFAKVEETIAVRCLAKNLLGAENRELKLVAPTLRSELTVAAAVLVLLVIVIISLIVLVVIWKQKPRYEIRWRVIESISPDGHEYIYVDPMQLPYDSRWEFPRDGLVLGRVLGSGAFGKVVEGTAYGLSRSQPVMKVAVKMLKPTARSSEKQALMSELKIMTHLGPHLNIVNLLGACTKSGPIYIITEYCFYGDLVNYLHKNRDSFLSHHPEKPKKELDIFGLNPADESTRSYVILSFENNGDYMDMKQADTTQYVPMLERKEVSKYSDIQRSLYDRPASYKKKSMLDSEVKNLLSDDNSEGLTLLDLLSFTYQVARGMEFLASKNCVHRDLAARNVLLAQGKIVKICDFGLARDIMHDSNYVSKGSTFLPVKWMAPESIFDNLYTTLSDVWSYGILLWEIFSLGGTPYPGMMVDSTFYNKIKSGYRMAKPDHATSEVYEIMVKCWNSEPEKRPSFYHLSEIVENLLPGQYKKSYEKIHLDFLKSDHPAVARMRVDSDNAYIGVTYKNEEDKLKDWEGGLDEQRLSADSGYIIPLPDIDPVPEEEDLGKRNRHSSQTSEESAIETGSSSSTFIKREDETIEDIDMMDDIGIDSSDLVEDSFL
Sequence of CSF1R (P07333 20-972): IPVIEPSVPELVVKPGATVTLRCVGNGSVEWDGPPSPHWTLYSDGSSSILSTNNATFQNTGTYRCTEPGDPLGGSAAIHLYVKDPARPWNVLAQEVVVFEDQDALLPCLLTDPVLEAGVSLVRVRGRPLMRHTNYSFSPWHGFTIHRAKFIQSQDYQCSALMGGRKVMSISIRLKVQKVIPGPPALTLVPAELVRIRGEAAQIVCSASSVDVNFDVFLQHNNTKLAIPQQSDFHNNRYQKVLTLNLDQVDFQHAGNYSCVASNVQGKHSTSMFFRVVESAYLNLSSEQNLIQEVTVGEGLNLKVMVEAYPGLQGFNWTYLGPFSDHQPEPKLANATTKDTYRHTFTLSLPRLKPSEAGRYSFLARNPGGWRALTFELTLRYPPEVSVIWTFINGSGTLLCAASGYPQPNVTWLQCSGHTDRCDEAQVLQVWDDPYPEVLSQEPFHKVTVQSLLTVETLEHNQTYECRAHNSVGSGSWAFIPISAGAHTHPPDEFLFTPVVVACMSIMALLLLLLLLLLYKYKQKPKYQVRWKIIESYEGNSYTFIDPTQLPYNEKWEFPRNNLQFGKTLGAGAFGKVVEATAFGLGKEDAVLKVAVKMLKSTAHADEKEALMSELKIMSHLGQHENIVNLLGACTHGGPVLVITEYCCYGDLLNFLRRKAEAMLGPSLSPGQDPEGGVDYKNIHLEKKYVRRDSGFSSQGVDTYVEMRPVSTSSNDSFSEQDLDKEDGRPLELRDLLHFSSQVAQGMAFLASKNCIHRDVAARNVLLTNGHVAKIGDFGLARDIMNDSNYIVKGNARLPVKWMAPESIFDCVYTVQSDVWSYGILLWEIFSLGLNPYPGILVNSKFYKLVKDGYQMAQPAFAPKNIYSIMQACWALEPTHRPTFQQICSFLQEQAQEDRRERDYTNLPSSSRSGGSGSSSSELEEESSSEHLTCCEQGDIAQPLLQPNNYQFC
Sequence of PDGFRβ (P09619 33-1106): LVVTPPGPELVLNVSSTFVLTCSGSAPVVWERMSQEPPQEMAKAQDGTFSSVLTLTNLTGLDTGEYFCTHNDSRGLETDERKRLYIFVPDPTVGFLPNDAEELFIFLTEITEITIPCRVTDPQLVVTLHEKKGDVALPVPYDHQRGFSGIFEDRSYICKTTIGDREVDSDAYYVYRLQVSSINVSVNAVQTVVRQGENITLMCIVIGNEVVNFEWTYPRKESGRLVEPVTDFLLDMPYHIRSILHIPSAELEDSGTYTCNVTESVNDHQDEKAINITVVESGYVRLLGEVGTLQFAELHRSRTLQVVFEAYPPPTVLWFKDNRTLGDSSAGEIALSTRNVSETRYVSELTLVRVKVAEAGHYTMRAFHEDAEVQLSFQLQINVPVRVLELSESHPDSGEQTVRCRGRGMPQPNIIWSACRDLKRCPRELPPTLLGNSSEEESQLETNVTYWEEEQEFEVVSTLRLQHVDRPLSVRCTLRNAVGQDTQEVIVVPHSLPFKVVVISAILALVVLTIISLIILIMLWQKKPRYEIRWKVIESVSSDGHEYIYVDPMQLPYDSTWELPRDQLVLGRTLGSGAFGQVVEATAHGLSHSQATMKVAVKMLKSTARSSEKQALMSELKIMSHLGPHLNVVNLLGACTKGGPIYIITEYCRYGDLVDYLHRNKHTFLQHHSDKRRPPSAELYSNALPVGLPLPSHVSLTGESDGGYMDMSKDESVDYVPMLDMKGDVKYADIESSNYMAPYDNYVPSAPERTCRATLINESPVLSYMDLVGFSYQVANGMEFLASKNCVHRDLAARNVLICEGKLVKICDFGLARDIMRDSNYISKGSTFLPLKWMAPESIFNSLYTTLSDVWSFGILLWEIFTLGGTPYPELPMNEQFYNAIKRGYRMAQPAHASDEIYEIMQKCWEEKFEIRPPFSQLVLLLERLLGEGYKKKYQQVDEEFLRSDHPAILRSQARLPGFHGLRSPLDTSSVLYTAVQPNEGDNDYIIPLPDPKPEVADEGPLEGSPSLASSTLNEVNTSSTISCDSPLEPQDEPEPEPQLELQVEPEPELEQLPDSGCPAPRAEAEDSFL

With `Cc1nnc(NC(=O)c2cc(NC(=O)c3cnc(N)s3)c(C)cc2F)s1` [Example 162, 2-Amino-N-[4-fluoro-2-methyl-5-[(5-methyl-1,3,4-thiadiazol-2-yl)carbamoyl]phenyl]-1,3-thiazole-5-carboxamide], the half-maximal inhibitory concentration (IC50) in assay [1] is more than 1000 nM; in assay [2], less than 100 nM; in assay [3] it was 100 to 1000 nM; in assay [4], more than 1000 nM.
On to `Cc1cc(F)c(C(=O)NCCCN2CCOCC2)cc1NC(=O)c1cnc(N)s1` [Example 164, 2-Amino-N-[4-fluoro-2-methyl-5-(3-morpholin-4-ylpropylcarbamoyl)phenyl]-1,3-thiazole-5-carboxamide], for which the IC50 was more than 1000 nM in assay [1], less than 100 nM in assay [2], more than 1000 nM in assay [3] and more than 1000 nM in assay [4].
For `Cc1cc(F)c(C(=O)NCCc2ccc(F)cc2)cc1NC(=O)c1cnc(N)s1` [Example 165], the concentration for half-maximal inhibition (IC50) in assay [1] is less than 100 nM; in assay [2], less than 100 nM; in assay [3], 100 to 1000 nM; in assay [4], 100 to 1000 nM.
For the compound `Cc1cc(F)c(C(=O)Nc2ccc(OC3CC3)cn2)cc1NC(=O)c1cncs1` [Example 169, N-[5-[(5-Cyclopropyloxypyridin-2-yl)carbamoyl]-4-fluoro-2-methylphenyl]-1,3-thiazole-5-carboxamide], the IC50 is more than 1000 nM in assay [1], less than 100 nM in assay [2], more than 1000 nM in assay [3] and more than 1000 nM in assay [4].
`Cc1cc(F)c(C(=O)Nc2nc(C3CC3)cs2)cc1NC(=O)c1cnc(N)s1` [Example 170, 2-Amino-N-[5-[(4-cyclopropyl-1,3-thiazol-2-yl)carbamoyl]-4-fluoro-2-methylphenyl]-1,3-thiazole-5-carboxamide]: the half-inhibitory concentration (IC50) is 100 to 1000 nM in assay [1], less than 100 nM in assay [2], 100 to 1000 nM in assay [3] and more than 1000 nM in assay [4].
`Cc1cc(F)c(C(=O)Nc2nc(C)n(C)n2)cc1NC(=O)c1cnc(N)s1` [Example 173, 2-Amino-N-[5-[(1,5-dimethyl-1,2,4-triazol-3-yl)carbamoyl]-4-fluoro-2-methylphenyl]-1,3-thiazole-5-carboxamide]: the half-inhibitory concentration (IC50) is more than 1000 nM in assay [1], 100 to 1000 nM in assay [2], more than 1000 nM in assay [3] and more than 1000 nM in assay [4].
As for `Cc1cc(F)c(C(=O)Nc2ncn(C)n2)cc1NC(=O)c1cnc(N)s1` [Example 174, 2-Amino-N-[4-fluoro-2-methyl-5-[(1-methyl-1,2,4-triazol-3-yl)carbamoyl]phenyl]-1,3-thiazole-5-carboxamide], the concentration for half-maximal inhibition (IC50) was more than 1000 nM in assay [1], 100 to 1000 nM in assay [2], more than 1000 nM in assay [3] and more than 1000 nM in assay [4].
With `Cc1cc(F)c(C(=O)Nc2nnc(C3CC3)s2)cc1NC(=O)c1cnc(N)s1` [Example 175, 2-Amino-N-[5-[(5-cyclopropyl-1,3,4-thiadiazol-2-yl)carbamoyl]-4-fluoro-2-methylphenyl]-1,3-thiazole-5-carboxamide], the IC50 in assay [1] was less than 100 nM; in assay [2], less than 100 nM; in assay [3], less than 100 nM; in assay [4], 100 to 1000 nM.
Turning to `Cc1cc(F)c(C(=O)Nc2nnc(C3CC3)[nH]2)cc1NC(=O)c1cnc(N)s1` [Example 176, 2-Amino-N-[5-[(5-cyclopropyl-4H-1,2,4-triazol-3-yl)carbamoyl]-4-fluoro-2-methylphenyl]-1,3-thiazole-5-carboxamide], the 50% inhibitory concentration (IC50) in assay [1] is more than 1000 nM; in assay [2], 100 to 1000 nM; in assay [3], more than 1000 nM; in assay [4] it was more than 1000 nM.
With `Cc1cc(F)c(C(=O)Nc2cc(C3CC3)[nH]n2)cc1NC(=O)c1cnc(N)s1` [Example 177, 2-Amino-N-[5-[(5-cyclopropyl-1H-pyrazol-3-yl)carbamoyl]-4-fluoro-2-methylphenyl]-1,3-thiazole-5-carboxamide], the IC50 in assay [1] is 100 to 1000 nM; in assay [2], less than 100 nM; in assay [3] it was 100 to 1000 nM; in assay [4], 100 to 1000 nM.
`Cc1cc(F)c(C(=O)Nc2cc(C(F)(F)F)ccn2)cc1NC(=O)c1cnc(N)s1` [Example 178, 2-Amino-N-[4-fluoro-2-methyl-5-[[4-(trifluoromethyl)pyridin-2-yl]carbamoyl]phenyl]-1,3-thiazole-5-carboxamide]: the IC50 in assay [1], in assay [2], in assay [3] and in assay [4] was less than 100 nM throughout.
Regarding `Cc1cc(F)c(C(=O)Nc2cc3n(n2)CCN(C)C3)cc1NC(=O)c1cnc(N)s1` [Example 180, 2-Amino-N-[4-fluoro-2-methyl-5-[(5-methyl-6,7-dihydro-4H-pyrazolo[1,5-a]pyrazin-2-yl)carbamoyl]phenyl]-1,3-thiazole-5-carboxamide], the IC50 is more than 1000 nM in assay [1], less than 100 nM in assay [2], more than 1000 nM in assay [3] and more than 1000 nM in assay [4].
Regarding `Cc1cc(F)c(C(=O)Nc2cc3n(n2)CCOC3)cc1NC(=O)c1cnc(N)s1` [Example 182, 2-Amino-N-[5-(6,7-dihydro-4H-pyrazolo [5,1-c][1,4]oxazin-2-ylcarbamoyl)-4-fluoro-2-methylphenyl]-1,3-thiazole-5-carboxamide], the IC50 in assay [1] was 100 to 1000 nM; in assay [2], less than 100 nM; in assay [3], more than 1000 nM; in assay [4], more than 1000 nM.
As for `Cc1cc(F)c(C(=O)Nc2ccc3c(c2)NC(=O)C3(C)C)cc1NC(=O)c1cnc(N)s1` [Example 183, 2-Amino-N-[5-[(3,3-dimethyl-2-oxo-1H-indol-6-yl)carbamoyl]-4-fluoro-2-methylphenyl]-1,3-thiazole-5-carboxamide], the concentration for half-maximal inhibition (IC50) in assay [1] is less than 100 nM; in assay [2], less than 100 nM; in assay [3], 100 to 1000 nM; in assay [4], less than 100 nM.
As for `Cc1cc(F)c(C(=O)Nc2ccc3c(c2)C(C)(C)C(=O)N3)cc1NC(=O)c1cnc(N)s1` [Example 184, 2-Amino-N-[5-[(3,3-dimethyl-2-oxo-1H-indol-5-yl)carbamoyl]-4-fluoro-2-methylphenyl]-1,3-thiazole-5-carboxamide], the concentration for half-maximal inhibition (IC50) is less than 100 nM in assay [1], less than 100 nM in assay [2], 100 to 1000 nM in assay [3] and less than 100 nM in assay [4].
On to `CO[C@H]1C[C@@H](n2nccc2NC(=O)c2cc(NC(=O)c3cnc(N)s3)c(C)cc2F)C1` [Example 186, 2-Amino-N-[4-fluoro-5-[[2-(cis-3-methoxycyclobutyl)pyrazol-3-yl]carbamoyl]-2-methylphenyl]-1,3-thiazole-5-carboxamide], for which the IC50 in assay [1] was more than 1000 nM; in assay [2] it was 100 to 1000 nM; in assay [3], more than 1000 nM; in assay [4], more than 1000 nM.
Consider `Cc1cc(F)c(C(=O)Nc2ccc3c(c2)C(F)(F)C(=O)N3)cc1NC(=O)c1cnc(N)s1` [Example 188, 2-Amino-N-[5-[(3,3-difluoro-2-oxo-1H-indol-5-yl)carbamoyl]-4-fluoro-2-methylphenyl]-1,3-thiazole-5-carboxamide], for which the concentration for half-maximal inhibition (IC50) in assay [1], in assay [2], in assay [3] and in assay [4] was less than 100 nM in each case.
Consider `Cc1cc(F)c(C(=O)Nc2cc(C3CC3)ccn2)cc1NC(=O)c1cnc(N)s1` [Example 190, 2-Amino-N-[5-[(4-cyclopropylpyridin-2-yl)carbamoyl]-4-fluoro-2-methylphenyl]-1,3-thiazole-5-carboxamide], for which the IC50 in assay [1], in assay [2], in assay [3] and in assay [4] was less than 100 nM each time.
